The values below come from publication PMC9774946, “Trans-(±)-Kusunokinin Binding to AKR1B1 Inhibits Oxidative Stress and Proteins Involved in Migration in Aggressive Breast Cancer” (Antioxidants, 2022).

Experiment [1] concerns the target T1, AKR1B1 (aldose reductase) (Homo sapiens, UniProt P15121). In words: aldose reductase inhibitor screening kit, NADPH consumption at […] nm. The class given is biochemical.
Experiment [2] has as its target T1, AKR1B1 (aldose reductase). Nature of the experiment: aldose reductase inhibitor screening kit (NADPH consumption at […] nm); supported by CETSA in Hs578T and SKOV3 cells. The class given is biochemical.

For `COc1ccc(C[C@H]2COC(=O)[C@@H]2Cc2ccc(O[C@@H]3O[C@H](CO)[C@@H](O)[C@H](O)[C@H]3O)c(OC)c2)cc1OC` [(−)AR, trans-(−)-arctiin], the IC50 (commonly the point on the concentration scale where inhibition reaches its midpoint) in experiment [1] was determined as 13.7 µM.
Compound `COc1ccc(C[C@H]2COC(=O)[C@@H]2Cc2ccc3c(c2)OCO3)cc1OC` (racemic) [(±)KU, trans-(±)-kusunokinin] showed an IC50 in experiment [2] of 9.72 ± 0.18 µM.
